Data as given in patent US4160829A, “Antibacterial 1,2,4-oxadiazolylacetamido cephalosporins” (Gist-Brocades N.V., priority 1972, dated 1979).
≈ marks a conversion by molar mass, not a printed value. Read-outs that look alike come from different tables or passages of the source.

Experiments:
[1] = test system: Strep. faec. L 80; assay: agar serial dilution test; format: cell-based, Streptococcus faecalis; conditions: Enterococcus faecalis; agar serial dilution, 24 hours, 37° C.; read-out: minimal inhibitory concentration (MIC)
[2] = test system: Prot.morg. 2241; assay: agar serial dilution test; format: cell-based; conditions: 24 h, agar serial dilution, 24 hours, 37° C.; read-out: minimal inhibitory concentration (MIC)
[3] = test system: Bruc.melit. A 488; assay: microbe, parasite or virus in culture; format: cell-based; conditions: Brucella melitensis, 24 h, read-out: minimal inhibitory concentration (MIC)
[4] = test system: Pseud.aerug. Wyeth A 1058; assay: agar serial dilution test; format: cell-based; conditions: agar serial dilution, 24 hours, 37° C.; read-out: minimal inhibitory concentration (MIC)
[5] = test system: Esch.coli U 20; assay: agar serial dilution test; format: cell-based, Escherichia coli; conditions: Escherichia coli, U20; agar serial dilution, 24 hours, 37° C.; read-out: minimal inhibitory concentration (MIC)
[6] = test system: Escherichia coli; assay: protection test; format: in vivo; conditions: ip
[7] = test system: Past.multo. A 723; assay: agar serial dilution test; format: cell-based, Pasteurella multocida; conditions: Pasteurella multocida; agar serial dilution, 24 hours, 37° C.; read-out: minimal inhibitory concentration (MIC)
[8] = test system: Salm.typh. R 127; assay: micro serial dilution test; format: cell-based; conditions: micro serial dilution (in brackets), about 18 hours, 30° C. or 37° C.; read-out: minimal inhibitory concentration (MIC)
Excerpt: Two drops of a stock solution of the test compound (antibiotic) in a known concentration were brought into the first hole of a test plate with 9 numbered holes with a sterile Pasteur pipette. After rinsing this pipette three times with a physiological NaCl-solution, two drops of a stock solution of the test organism in a culture medium were brought in all the holes except for hole 8. In the first hole, the solution of the tested compound had been half diluted, then by stirring the liquid in the first hole and adding two drops of this mixture to the second hole and so on until hole 8, dilutions of the test compound solution were obtained in geometrical progression. The hole 9 contained no antibiotic and served for checking the growth of the testogranism in a blank medium. The test plate was incubated at 30° C. or 37° C. for about 18 hours.

[9] = test system: Shig.equir. T 3; assay: agar serial dilution test; format: cell-based; conditions: 24 h, 37° C., read-out: minimal inhibitory concentration (MIC)
[10] = test system: Prot.mirab. L 93; assay: agar serial dilution test; format: cell-based, Proteus mirabilis; conditions: Proteus mirabilis; agar serial dilution, 24 hours, 37° C.; read-out: minimal inhibitory concentration (MIC)
[11] = test system: Staph.aureus A 355; assay: agar serial dilution test; conditions: Staphylococcus aureus, A355, 24 h, read-out: minimal inhibitory concentration (MIC), agar serial dilution, 24 hours, 37° C.; penicillinase-producing strain
[12] = test system: Strep.haem. A 266; assay: agar serial dilution test; format: cell-based, Streptococcus haemolyticus; conditions: Streptococcus; agar serial dilution, 24 hours, 37° C.; read-out: minimal inhibitory concentration (MIC)
[13] = test system: Proteus rettgeri; assay: protection test; format: in vivo; conditions: Providencia rettgeri, sc
[14] = test system: Dipl.pneum. L 54; assay: agar serial dilution test; format: cell-based, Diplococcus pneumoniae; conditions: Streptococcus pneumoniae; agar serial dilution, 24 hours, 37° C.; read-out: minimal inhibitory concentration (MIC)
[15] = test system: Staph.aureus A 2000; assay: agar serial dilution test; format: cell-based, Staphylococcus aureus; conditions: Staphylococcus aureus, A2000, 24 h, agar serial dilution, 24 hours, 37° C.; read-out: minimal inhibitory concentration (MIC)
[16] = test system: Pseud.aerug. 2396; assay: agar serial dilution test; format: cell-based; conditions: agar serial dilution, 24 hours, 37° C.; read-out: minimal inhibitory concentration (MIC)
[17] = test system: Staph. aureus pen.resistant; assay: protection test; format: in vivo; conditions: Staphylococcus aureus, sc
[18] = test system: Pseud.aerug. H 10; assay: agar serial dilution test; format: cell-based; conditions: agar serial dilution, 24 hours, 37° C.; read-out: minimal inhibitory concentration (MIC)
[19] = test system: Kleb.pneum. A 809; assay: agar serial dilution test; format: cell-based, Klebsiella pneumoniae; conditions: Klebsiella pneumoniae; agar serial dilution, 24 hours, 37° C.; read-out: minimal inhibitory concentration (MIC)
[20] = test system: Prot.mirab. H 3; assay: agar serial dilution test; format: cell-based, Proteus mirabilis; conditions: Proteus mirabilis
[21] = test system: Klebsiella pneumoniae; assay: protection test; format: in vivo; conditions: ip
[22] = test system: Salm.dubl. P 43; assay: agar serial dilution test; format: cell-based, Salmonella dublin; conditions: Salmonella enterica; agar serial dilution, 24 hours, 37° C.; read-out: minimal inhibitory concentration (MIC)
[23] = acute toxicity in mice; conditions: mouse, in vivo, ip; mice (Swiss), one intraperitoneal administration
Description: (a) For sodium 7-[(3-methyl-1,2,4-oxadiazol-5-yl)-acetamido]-cephalosporanate (as prepared in Example 10), the acute toxicity was determined in mice (Swiss) with one intraperitoneal administration. The LD50 appeared to be >6000 mg/kg (Cephalotin-LD50 >6000 mg/kg).

[24] = test system: penicillin resistant Staphylococcus aureus strain; assay: protection test; format: in vivo; conditions: sc
Excerpt: The compound may preferably be used parenterally.

[25] = test system: Staph.aureus A 321; assay: agar serial dilution test; format: cell-based, Staphylococcus aureus; conditions: Staphylococcus aureus, A321, 24 h, agar serial dilution, 24 hours, 37° C.; read-out: minimal inhibitory concentration (MIC)
[26] = test system: Kleb.pneum. A 809; assay: micro serial dilution test; format: cell-based; conditions: Klebsiella pneumoniae; micro serial dilution (in brackets), about 18 hours, 30° C. or 37° C.; read-out: minimal inhibitory concentration (MIC)
[27] = test system: Bac.Subt.ATCC 6633; assay: agar serial dilution test; format: cell-based, Bacillus subtilis; conditions: Bacillus subtilis, ATCC6633, 24 h, agar serial dilution, 24 hours, 37° C.; read-out: minimal inhibitory concentration (MIC)
[28] = test system: Prot.rettg. A 821; assay: agar serial dilution test; format: cell-based, Proteus rettgeri; conditions: Providencia rettgeri, 24 h, read-out: minimal inhibitory concentration (MIC)
[29] = test system: Proteus rettgeri A 821; assay: protection test; format: in vivo; conditions: s.c.
[30] = test system: Prot.mirab. A 1200; assay: agar serial dilution test; format: cell-based, Proteus mirabilis; conditions: Proteus mirabilis, 24 h, agar serial dilution, 24 hours, 37° C.; read-out: minimal inhibitory concentration (MIC)
[31] = test system: Strep.haem A 1088; assay: agar serial dilution test; format: cell-based, Streptococcus haemolyticus; conditions: Streptococcus, A1088, 24 hours, 37° C., read-out: minimal inhibitory concentration (MIC)
[32] = test system: Staph.aureus A 2001; assay: agar serial dilution test; format: cell-based, Staphylococcus aureus; conditions: Staphylococcus aureus, A2001, 24 h, agar serial dilution, 24 hours, 37° C.; read-out: minimal inhibitory concentration (MIC)
[33] = test system: Salm.typh. R 172; assay: agar serial dilution test; format: cell-based; conditions: 24 h, read-out: minimal inhibitory concentration (MIC)
[34] = test system: Sarc. lutea ATCC 9341; assay: micro serial dilution test; format: cell-based; conditions: Micrococcus luteus, ATCC9341; micro serial dilution (in brackets), about 18 hours, 30° C. or 37° C.; read-out: minimal inhibitory concentration (MIC)
[35] = test system: Staph.aureus A 355; assay: micro serial dilution test; format: cell-based, Staphylococcus aureus; conditions: Staphylococcus aureus, A355; micro serial dilution (in brackets), about 18 hours, 30° C. or 37° C.; penicillinase-producing strain; read-out: minimal inhibitory concentration (MIC)
[36] = test system: Haem.Suis A 2096; assay: micro serial dilution test; format: cell-based; conditions: micro serial dilution (in brackets), about 18 hours, 30° C. or 37° C.; read-out: minimal inhibitory concentration (MIC)
[37] = test system: Actinob.equ. T 3; assay: agar serial dilution test; format: cell-based; conditions: 24 hours, 37° C., read-out: minimal inhibitory concentration (MIC)
[38] = test system: Staph.aureus A 2001; assay: micro serial dilution test; format: cell-based, Staphylococcus aureus; conditions: Staphylococcus aureus, A2001, 18 h, micro serial dilution (in brackets), about 18 hours, 30° C. or 37° C.; read-out: minimal inhibitory concentration (MIC)
[39] = test system: Bruc. Suis A 2126; assay: agar serial dilution test; format: cell-based; conditions: Brucella suis, 24 h, read-out: minimal inhibitory concentration (MIC)
[40] = test system: Proteus mirabilis A 1200; assay: protection test; format: in vivo; conditions: s.c.; for ED50: protection test
[41] = test system: Prot.mirab. A 1200; assay: micro serial dilution test; format: cell-based; conditions: Proteus mirabilis; micro serial dilution (in brackets), about 18 hours, 30° C. or 37° C.; read-out: minimal inhibitory concentration (MIC)
[42] = test system: Staph.aureus A 2000; assay: micro serial dilution test; format: cell-based, Staphylococcus aureus; conditions: Staphylococcus aureus, A2000, 18 h, micro serial dilution (in brackets), about 18 hours, 30° C. or 37° C.; read-out: minimal inhibitory concentration (MIC)
[43] = test system: Klebsiella pneumoniae A 265; assay: protection test; format: in vivo; conditions: i.p.

With `CC(=O)OCC1=C(C(=O)O)N2C(=O)[C@@H](NC(=O)Cc3cccs3)[C@H]2SC1` [Cephalotin, reference compound] the MIC [1] was 25 µg/mL (≈ 63.1 µM), the MIC [2] was > 100 µg/mL and the MIC [3] was 6 µg/mL (≈ 15.1 µM). For the same molecule, the MIC [4] was > 100 µg/mL, the MIC [5] was 3 µg/mL (≈ 7.57 µM) and the ED50 [6] was > 300 mg/kg. The MIC [7] was 0.7 µg/mL (≈ 1.77 µM), the MIC [8] was 3 µg/mL (≈ 7.57 µM) and the MIC [9] was 1.5 µg/mL (≈ 3.78 µM). The MIC [10] was 0.6 µg/mL (≈ 1.51 µM), the MIC [11] was 0.5 µg/mL (≈ 1.26 µM) and the MIC [12] was 0.06 µg/mL (≈ 0.151 µM). The ED50 [13] was 4.34 mg/kg, the MIC [14] was 0.5 µg/mL (≈ 1.26 µM) and the MIC [15] was 0.5 µg/mL (≈ 1.26 µM). For the same molecule, the MIC [16] was > 100 µg/mL, the ED50 [17] was 37.6 mg/kg and the MIC [18] was > 100 µg/mL. The MIC [19] was 0.7 µg/mL (≈ 1.77 µM), the MIC ([20]; 24 h, read-out: minimal inhibitory concentration (MIC), agar serial dilution, 24 hours, 37° C.) was 12.5 µg/mL (≈ 31.5 µM) and the ED50 [21] was 0.8 mg/kg. The MIC [22] was 1.5 µg/mL (≈ 3.78 µM), the LD50 [23] was > 6000 mg/kg and the ED50 [24] was 1.3 mg/kg. The MIC [25] was 0.5 µg/mL (≈ 1.26 µM), the MIC [26] was 0.37 µg/mL (≈ 0.933 µM) and the MIC [27] was 0.12 µg/mL (≈ 0.303 µM). The MIC [28] was 12.5 µg/mL (≈ 31.5 µM).

In the case of `Cn1nnnc1SCC1=C(C(=O)O)N2C(=O)[C@@H](NC(=O)Cc3nc(CC(=O)O)no3)[C@H]2SC1` [Compound F, disodium 7-[(3-carboxymethyl-1,2,4-oxadiazol-5-yl)-acetamido]-3[1-methyl-tetrazol-5-yl-mercaptomethyl] 3-cephem-4-carboxylate], the ED50 ([29]; Providencia rettgeri, A821, sc, protection test) is reported as 0.023 mg/kg, the Potency ratio ([29]; reference Cefalotin) is reported as > 5 and the MIC [30] is reported as 3 µg/mL. The MIC [1] was > 100 µg/mL, the MIC [2] was 25 µg/mL and the MIC [4] was 100 µg/mL. The MIC [5] was 0.75 µg/mL, the MIC [7] was 1 µg/mL and the MIC [31] was 3 µg/mL. It also gave an MIC [10] of 1.5 µg/mL, an MIC [32] of 6 µg/mL and an MIC [33] of 0.75 µg/mL. For the same molecule, the MIC [11] was 6 µg/mL, the MIC [34] was 3.7 µg/mL and the MIC [35] was 6 µg/mL. The MIC [36] was 0.23 µg/mL, the MIC [14] was 1 µg/mL and the MIC [15] was 6 µg/mL. The MIC [16] was 100 µg/mL, the MIC [37] was 0.5 µg/mL and the MIC [38] was 3.7 µg/mL. For the same molecule, the MIC [18] was 100 µg/mL, the MIC [39] was 1 µg/mL and the MIC [19] was 0.5 µg/mL. For the same molecule, the MIC ([20]; agar serial dilution, 24 hours, 37° C., read-out: minimal inhibitory concentration (MIC)) was 1.5 µg/mL, the MIC [22] was 0.5 µg/mL and the ED50 ([40]; Proteus mirabilis, A1200, sc, read-out: ED50) was 2.2 mg/kg. The ED50 [40] was 1,35 mg/kg, the Potency ratio ([40]; reference Cefalotin) was 6,9 and the Potency ratio ([40]; reference Cefazolin) was 6,5. It also gave an MIC [25] of 3 µg/mL, an MIC [41] of 1.2 µg/mL and an MIC [27] of 1.5 µg/mL. The MIC ([28]; agar serial dilution, 24 hours, 37° C.) was 0.25 µg/mL, the MIC [42] was 4 µg/mL and the ED50 ([43]; Klebsiella pneumoniae, A265, ip, protection test) was 16 mg/kg. The Potency ratio ([43]; reference Cefalotin) was 5,7.
